Results reported in PubChem BioAssay (NCI).
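Cells were grown in 96-well plates and exposed to each compound for 48 hours at five concentrations; endpoints were interpolated linearly between bracketing concentrations, or set to the highest concentration if not reached. TGI is the concentration that stops growth completely.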

Test system: SN12K1 renal
Test: NCI-60 cell line screen, 48 h

SMILES | TGI [µM]
CNC(=O)OCc1nc(SSC(C)(C)C)n(C)c1COC(=O)NC | 14.9
N[C@H](C(=O)O)[C@@H]1CC(Cl)=NO1 | > 1000
